Laboratory results as given in ChEMBL document CHEMBL5465560, “Selectivity Literature for EUbOPEN Chemogenomic Library” (2024).
Values belong to the molecule of their own block, whether it stands above or below them.

Assays:
[1] = biological target: Delta-type opioid receptor (Homo sapiens, UniProt P41143); assay: Selectivity interaction (Eurofins CEREP Diversity Profile (receptors and ion channels)) EUB0000279b OPRD1; conditions: at 10 µM
[2] = biological target: T1, Ephrin type-A receptor 1 (Homo sapiens) (UniProt P21709); assay: Selectivity interaction (Ambit KINOMEscan and KiNATiv profiling in Jurkat cells) EUB0000090b EPHA1; format: cell-based; conditions: at 1 µM
T1 sequence (whole entry): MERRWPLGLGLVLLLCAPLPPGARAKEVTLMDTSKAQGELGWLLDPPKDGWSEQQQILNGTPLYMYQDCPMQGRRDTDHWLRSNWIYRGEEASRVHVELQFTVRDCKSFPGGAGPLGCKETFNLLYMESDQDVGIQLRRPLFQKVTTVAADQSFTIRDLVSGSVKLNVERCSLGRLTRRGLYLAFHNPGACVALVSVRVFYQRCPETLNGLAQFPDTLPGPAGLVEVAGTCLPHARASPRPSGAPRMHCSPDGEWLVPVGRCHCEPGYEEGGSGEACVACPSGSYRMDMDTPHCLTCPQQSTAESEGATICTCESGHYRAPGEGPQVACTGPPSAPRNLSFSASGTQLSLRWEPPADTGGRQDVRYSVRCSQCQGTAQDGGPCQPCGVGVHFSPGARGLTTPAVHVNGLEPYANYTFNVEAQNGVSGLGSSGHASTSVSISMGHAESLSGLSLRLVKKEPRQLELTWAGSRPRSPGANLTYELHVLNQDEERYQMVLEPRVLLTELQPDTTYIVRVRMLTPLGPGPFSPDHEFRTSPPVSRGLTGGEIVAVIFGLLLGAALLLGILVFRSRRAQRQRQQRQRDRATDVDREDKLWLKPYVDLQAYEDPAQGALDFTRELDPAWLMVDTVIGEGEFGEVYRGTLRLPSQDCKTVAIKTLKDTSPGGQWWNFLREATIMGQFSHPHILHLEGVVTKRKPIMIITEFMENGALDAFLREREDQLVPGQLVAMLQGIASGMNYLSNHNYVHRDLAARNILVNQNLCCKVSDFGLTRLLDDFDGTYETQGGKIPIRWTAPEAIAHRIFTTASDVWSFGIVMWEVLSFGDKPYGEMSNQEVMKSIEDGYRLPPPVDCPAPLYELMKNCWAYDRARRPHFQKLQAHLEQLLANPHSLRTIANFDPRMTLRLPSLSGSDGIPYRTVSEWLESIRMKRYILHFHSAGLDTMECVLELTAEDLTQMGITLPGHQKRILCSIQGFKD

[3] = biological target: Mitogen-activated protein kinase kinase kinase 1 (Homo sapiens, UniProt Q13233); assay: Selectivity interaction (KinomeScan (DiscoverX)) EUB0000618a MAP3K1; conditions: at 10 µM
[4] = biological target: Fibroblast growth factor receptor 4 (Homo sapiens, UniProt P22455); assay: Selectivity interaction (SelectScreen profiling (Invitrogen)) EUB0000607a FGFR4; conditions: at 2 µM
[5] = biological target: Ephrin type-A receptor 7 (Homo sapiens) (UniProt Q15375); assay: Selectivity interaction (Kinase panel (DSF assay)) EUB0001558a EPHA7
[6] = biological target: T2, Serine/threonine-protein kinase NLK (Homo sapiens) (UniProt Q9UBE8); assay: Selectivity interaction (KinomeScan (DiscoverX)) EUB0000045b NLK
T2 sequence (whole entry): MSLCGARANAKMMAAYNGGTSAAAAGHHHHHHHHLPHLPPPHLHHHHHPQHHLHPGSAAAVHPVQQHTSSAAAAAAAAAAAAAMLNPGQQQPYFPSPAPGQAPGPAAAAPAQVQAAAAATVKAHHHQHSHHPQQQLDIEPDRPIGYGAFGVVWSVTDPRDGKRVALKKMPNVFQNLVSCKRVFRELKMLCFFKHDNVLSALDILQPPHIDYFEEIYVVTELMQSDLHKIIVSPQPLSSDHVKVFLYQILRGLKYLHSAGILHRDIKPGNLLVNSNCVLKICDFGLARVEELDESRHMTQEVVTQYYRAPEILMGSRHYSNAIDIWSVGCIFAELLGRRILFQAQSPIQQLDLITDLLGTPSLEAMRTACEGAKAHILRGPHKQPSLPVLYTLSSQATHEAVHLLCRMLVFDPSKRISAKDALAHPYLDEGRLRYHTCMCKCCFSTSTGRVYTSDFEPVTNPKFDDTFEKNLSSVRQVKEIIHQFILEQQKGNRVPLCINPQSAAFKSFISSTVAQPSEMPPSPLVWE

[7] = biological target: Non-receptor tyrosine-protein kinase TYK2 (Homo sapiens, UniProt P29597); assay: Selectivity interaction (KinomeScan (DiscoverX)) EUB0000045b TYK2; conditions: at 1 µM
[8] = biological target: T3, Histone-arginine methyltransferase CARM1 (Homo sapiens) (UniProt Q86X55); conditions: KMS-26, at 3 µM
T3 sequence (whole entry): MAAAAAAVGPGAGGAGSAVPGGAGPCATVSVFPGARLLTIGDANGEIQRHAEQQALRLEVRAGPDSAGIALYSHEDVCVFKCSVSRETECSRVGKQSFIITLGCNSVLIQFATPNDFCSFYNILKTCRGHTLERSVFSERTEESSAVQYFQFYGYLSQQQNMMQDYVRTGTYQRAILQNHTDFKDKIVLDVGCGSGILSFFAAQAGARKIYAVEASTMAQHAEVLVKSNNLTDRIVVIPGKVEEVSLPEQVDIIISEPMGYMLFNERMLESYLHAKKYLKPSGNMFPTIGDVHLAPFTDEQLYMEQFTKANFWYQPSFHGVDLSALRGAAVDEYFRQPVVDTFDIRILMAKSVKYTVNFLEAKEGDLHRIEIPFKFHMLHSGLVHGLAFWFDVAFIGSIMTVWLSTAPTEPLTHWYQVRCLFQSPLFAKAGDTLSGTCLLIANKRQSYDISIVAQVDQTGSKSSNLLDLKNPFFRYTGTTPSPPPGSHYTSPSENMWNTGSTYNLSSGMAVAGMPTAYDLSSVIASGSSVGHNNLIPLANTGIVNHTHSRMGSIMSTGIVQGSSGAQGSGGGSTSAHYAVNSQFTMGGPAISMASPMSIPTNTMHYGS

[9] = biological target: Homeodomain-interacting protein kinase 2 (Homo sapiens, UniProt Q9H2X6); assay: Selectivity interaction (Kinase panel (Invitrogen)) EUB0000639a HIPK2; conditions: at 200 nM
[10] = biological target: Tyrosine-protein kinase ABL1 (Homo sapiens, UniProt P00519); assay: Selectivity interaction (ActivX KiNativ screen (kinase selectivity in THP-1 cell lysates)) EUB0000639a ABL1; format: subcellular; conditions: lysate, at 0.04 µM
[11] = biological target: Protein-tyrosine kinase 2-beta (Homo sapiens) (UniProt Q14289); assay: Selectivity interaction (ActivX KiNativ screen (kinase selectivity in THP-1 cell lysates)) EUB0000639a PTK2B; format: subcellular; conditions: lysate, at 0.2 µM
[12] = biological target: NT-3 growth factor receptor (Homo sapiens, UniProt Q16288); assay: Selectivity interaction (KinomeScan (DiscoverX)) EUB0001049a NTRK3; conditions: at 1 µM
[13] = biological target: Mitogen-activated protein kinase 3 (Homo sapiens, UniProt P27361); assay: Selectivity interaction (KinomeScan (DiscoverX)) EUB0000666a MAPK3; conditions: at 10 µM
Sequence of Mitogen-activated protein kinase 3 (P27361 whole entry): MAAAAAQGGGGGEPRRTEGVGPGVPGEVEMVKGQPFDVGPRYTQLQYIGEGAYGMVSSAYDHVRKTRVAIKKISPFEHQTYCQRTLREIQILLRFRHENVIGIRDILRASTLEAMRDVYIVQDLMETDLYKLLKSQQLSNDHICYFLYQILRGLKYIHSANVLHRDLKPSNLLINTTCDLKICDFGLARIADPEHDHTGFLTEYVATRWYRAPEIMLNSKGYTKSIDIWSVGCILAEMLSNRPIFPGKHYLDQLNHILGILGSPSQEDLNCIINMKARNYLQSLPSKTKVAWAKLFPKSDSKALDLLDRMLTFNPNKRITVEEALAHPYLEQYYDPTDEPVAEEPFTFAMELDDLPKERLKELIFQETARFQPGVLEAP

Sequence of Delta-type opioid receptor (P41143 whole entry): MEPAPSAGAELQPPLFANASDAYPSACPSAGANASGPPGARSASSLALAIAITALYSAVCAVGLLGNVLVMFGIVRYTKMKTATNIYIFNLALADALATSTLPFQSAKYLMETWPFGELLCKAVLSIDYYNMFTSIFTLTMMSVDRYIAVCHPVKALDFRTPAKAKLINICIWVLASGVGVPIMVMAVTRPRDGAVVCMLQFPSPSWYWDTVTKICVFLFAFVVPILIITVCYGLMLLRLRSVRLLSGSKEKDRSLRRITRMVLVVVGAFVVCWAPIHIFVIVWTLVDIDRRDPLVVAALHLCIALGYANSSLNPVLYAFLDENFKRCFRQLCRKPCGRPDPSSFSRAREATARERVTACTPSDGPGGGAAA
Sequence of Non-receptor tyrosine-protein kinase TYK2 (P29597 whole entry): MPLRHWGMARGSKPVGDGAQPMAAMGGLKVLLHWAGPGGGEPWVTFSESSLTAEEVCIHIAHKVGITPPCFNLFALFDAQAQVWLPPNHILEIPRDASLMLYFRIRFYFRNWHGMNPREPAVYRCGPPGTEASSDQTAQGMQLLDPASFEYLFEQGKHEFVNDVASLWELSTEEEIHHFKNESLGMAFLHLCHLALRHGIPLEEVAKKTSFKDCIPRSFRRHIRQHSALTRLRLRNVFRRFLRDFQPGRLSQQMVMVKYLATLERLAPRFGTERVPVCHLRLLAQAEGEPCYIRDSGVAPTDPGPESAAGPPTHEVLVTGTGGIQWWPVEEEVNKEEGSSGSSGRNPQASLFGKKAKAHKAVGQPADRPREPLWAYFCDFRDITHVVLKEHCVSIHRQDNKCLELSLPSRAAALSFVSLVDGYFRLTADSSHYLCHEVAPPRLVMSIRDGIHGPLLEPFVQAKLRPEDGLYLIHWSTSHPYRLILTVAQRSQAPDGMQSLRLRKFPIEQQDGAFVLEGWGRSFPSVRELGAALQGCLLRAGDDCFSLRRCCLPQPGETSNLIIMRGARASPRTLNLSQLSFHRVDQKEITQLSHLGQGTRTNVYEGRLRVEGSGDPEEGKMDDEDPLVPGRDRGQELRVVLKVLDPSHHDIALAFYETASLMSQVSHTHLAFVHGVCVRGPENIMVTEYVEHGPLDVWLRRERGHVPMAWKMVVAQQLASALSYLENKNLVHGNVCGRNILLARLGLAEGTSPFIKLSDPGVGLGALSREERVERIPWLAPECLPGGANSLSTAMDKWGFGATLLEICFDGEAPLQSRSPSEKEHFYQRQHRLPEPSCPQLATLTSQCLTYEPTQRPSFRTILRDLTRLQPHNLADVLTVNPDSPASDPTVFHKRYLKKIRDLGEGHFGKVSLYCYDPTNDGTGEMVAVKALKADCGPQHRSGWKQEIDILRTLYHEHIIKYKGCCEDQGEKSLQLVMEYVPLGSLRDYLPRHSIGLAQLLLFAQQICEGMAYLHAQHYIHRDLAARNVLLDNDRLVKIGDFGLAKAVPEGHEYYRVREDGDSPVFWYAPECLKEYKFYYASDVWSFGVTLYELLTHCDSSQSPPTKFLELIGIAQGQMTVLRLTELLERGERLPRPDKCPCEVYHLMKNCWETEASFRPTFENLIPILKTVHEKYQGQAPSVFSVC
Sequence of Mitogen-activated protein kinase kinase kinase 1 (Q13233 whole entry): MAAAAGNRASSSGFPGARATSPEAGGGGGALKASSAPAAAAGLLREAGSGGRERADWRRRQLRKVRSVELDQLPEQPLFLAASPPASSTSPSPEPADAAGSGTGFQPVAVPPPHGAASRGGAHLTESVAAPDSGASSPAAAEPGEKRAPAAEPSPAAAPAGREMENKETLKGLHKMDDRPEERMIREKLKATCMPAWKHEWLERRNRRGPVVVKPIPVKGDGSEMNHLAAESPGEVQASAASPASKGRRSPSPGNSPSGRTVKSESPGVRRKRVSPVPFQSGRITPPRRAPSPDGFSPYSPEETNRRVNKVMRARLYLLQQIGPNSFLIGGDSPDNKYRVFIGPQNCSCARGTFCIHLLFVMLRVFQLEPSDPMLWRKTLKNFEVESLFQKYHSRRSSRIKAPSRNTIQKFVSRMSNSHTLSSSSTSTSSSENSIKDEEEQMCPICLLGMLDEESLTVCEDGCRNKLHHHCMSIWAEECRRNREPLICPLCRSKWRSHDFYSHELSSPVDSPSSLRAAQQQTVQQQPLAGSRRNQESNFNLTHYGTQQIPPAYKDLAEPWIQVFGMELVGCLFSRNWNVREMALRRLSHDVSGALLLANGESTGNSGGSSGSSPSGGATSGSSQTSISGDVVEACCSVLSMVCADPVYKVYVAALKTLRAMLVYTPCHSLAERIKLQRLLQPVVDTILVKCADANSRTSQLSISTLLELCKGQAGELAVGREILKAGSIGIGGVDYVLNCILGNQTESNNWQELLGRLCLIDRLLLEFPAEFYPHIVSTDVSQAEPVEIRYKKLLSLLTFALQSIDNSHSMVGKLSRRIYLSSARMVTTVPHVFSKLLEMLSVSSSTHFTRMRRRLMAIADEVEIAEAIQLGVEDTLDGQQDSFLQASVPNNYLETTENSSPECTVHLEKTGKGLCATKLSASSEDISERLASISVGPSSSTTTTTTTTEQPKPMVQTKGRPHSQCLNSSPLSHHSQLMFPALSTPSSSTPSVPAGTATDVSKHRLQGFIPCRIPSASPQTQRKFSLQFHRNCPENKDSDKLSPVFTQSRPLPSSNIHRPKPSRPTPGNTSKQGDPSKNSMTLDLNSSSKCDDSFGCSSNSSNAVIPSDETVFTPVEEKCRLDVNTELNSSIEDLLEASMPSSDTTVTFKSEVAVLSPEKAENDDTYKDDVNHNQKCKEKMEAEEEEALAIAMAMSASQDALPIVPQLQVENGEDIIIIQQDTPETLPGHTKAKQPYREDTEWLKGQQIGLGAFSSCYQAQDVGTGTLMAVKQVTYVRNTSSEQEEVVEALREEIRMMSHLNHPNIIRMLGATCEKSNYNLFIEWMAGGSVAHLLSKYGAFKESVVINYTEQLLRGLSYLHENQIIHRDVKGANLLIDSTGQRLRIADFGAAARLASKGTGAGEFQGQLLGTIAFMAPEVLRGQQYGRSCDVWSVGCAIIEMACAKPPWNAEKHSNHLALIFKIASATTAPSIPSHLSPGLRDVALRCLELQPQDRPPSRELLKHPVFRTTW
Sequence of Homeodomain-interacting protein kinase 2 (Q9H2X6 whole entry, looked up): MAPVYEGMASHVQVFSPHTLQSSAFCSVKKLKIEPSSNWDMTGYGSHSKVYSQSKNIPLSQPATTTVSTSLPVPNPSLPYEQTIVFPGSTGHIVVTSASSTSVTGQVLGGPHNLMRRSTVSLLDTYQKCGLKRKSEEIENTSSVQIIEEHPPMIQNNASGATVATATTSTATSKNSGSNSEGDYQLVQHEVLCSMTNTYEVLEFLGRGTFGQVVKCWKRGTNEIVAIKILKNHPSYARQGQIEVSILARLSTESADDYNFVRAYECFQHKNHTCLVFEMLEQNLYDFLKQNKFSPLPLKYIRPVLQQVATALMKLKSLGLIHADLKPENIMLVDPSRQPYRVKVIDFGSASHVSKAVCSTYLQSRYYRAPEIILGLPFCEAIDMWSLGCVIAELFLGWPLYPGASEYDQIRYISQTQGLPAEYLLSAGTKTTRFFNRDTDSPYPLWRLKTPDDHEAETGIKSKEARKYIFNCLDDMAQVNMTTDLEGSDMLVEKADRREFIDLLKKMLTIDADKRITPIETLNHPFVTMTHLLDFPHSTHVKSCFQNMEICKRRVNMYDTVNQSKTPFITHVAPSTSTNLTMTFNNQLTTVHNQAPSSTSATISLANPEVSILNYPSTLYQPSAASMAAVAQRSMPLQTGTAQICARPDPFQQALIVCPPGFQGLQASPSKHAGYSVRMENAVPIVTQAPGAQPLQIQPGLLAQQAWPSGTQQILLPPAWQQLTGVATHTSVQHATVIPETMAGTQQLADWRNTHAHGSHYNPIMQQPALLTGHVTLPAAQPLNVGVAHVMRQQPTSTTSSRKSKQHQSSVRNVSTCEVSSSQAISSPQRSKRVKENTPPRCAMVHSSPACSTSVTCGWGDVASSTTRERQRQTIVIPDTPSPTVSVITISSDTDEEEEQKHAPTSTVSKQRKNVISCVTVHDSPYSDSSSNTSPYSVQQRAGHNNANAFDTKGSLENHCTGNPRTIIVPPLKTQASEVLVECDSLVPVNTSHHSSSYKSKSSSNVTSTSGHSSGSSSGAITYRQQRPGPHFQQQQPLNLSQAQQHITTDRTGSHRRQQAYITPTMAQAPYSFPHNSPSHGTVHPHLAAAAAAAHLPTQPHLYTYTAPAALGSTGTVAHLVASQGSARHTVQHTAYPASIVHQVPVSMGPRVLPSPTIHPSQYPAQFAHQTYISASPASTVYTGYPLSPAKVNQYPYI

% of control [1]: 91%
SMILES: CC(=O)c1cc(-c2ccccc2OCC2CC2)c2ncccn12

SMILES: CN(C)C/C=C/C(=O)Nc1ccc(C(=O)N2CCCC(Nc3ncc(Cl)c(-c4c[nH]c5ccccc45)n3)C2)cc1 (centres undefined)
% of control [2]: 73%

SMILES: O[C@H]1CC[C@H](Nc2ncc3nc(Nc4c(F)cc(F)cc4F)n([C@H]4CCOC4)c3n2)CC1
% of control [3]: 91%

SMILES: CNC(=O)Nc1ccc(-c2nc(N3CC4CCC(C3)O4)c3cnn(C4CCC5(CC4)OCCO5)c3n2)cc1
% of inhibition [4]: 4%

SMILES: CC(C)(O)[C@H](F)CN1Cc2cc(NC(=O)c3cnn4cccnc34)c(N3CCOCC3)cc2C1=O
dTM [5]: -0.2 K

SMILES: C=CC(=O)Nc1cc(-n2c(=O)ccc3cnc4ccc(-c5ccc(NS(C)(=O)=O)cc5)cc4c32)ccc1C
% of control ([6]; at 1 µM): 100%
% of control ([6]; at 10 µM): 100%
% of control [7]: 80%

% of growth rate [8]: -19.5%
SMILES: CNCCN1CCC(c2cc(CN(C)C(=O)c3cccc(Oc4ccccc4)c3)ccn2)CC1

% of inhibition [9]: 4.6%
% of inhibition [10]: -16.4%
% of inhibition [11]: -18.6%
SMILES: CC[C@@H]1[C@H](F)C(=O)N[C@@H]1COc1nccc2cc(C(N)=O)c(OC)cc12 [ZIMLOVISERTIB]

SMILES: COc1cc(Nc2nc(C)cc(-c3cnn4nc(OC)ccc34)n2)cc(C(F)(F)F)c1
% of control [12]: 84%

SMILES: O=C(NOC[C@H](O)CO)c1ccc(F)c(F)c1Nc1ccc(I)cc1F
% of control [13]: 86%
